Source: PubChem BioAssay AID248 (DTP/NCI, 2004)
Where “and” joins values, the source holds several entries; their conditions need not be identical. Identical values can stand only once. Toxic doses and inconclusive results are not listed. Rule as the data show it: active = T/C of 150% or more; inactive = T/C below 125%.

Test system: L1210 leukemia ip in BDF1 mice, survival T/C
Assay: NCI In Vivo Anticancer Drug Screen. Data for tumor model L1210 Leukemia (intraperitoneal) in B6D2F1 (BDF1) mice
Conditions: endpoint: mean survival time, higher = longer survival
Outline: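 Read-out is survival time, reported as the treated-group measurement over the vehicle-control measurement.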

[1] = dose: 100.0 mg/kg/injection, schedule: Q01DX009 (ip), vehicle: Klucel (hydroxypropylcellulose) (HPC)
[2] = dose: 100.0 mg/kg/injection, schedule: Q04DX003 (ip), vehicle: Klucel (hydroxypropylcellulose) (HPC)
[3] = dose: 200.0 mg/kg/injection, schedule: Q04DX003 (ip), vehicle: Klucel (hydroxypropylcellulose) (HPC)
[4] = dose: 100.0 mg/kg/injection, schedule: Q04DX002 (ip), vehicle: Klucel (hydroxypropylcellulose) (HPC)
[5] = dose: 200.0 mg/kg/injection, schedule: Q04DX002 (ip), vehicle: Klucel (hydroxypropylcellulose) (HPC)
[6] = dose: 400.0 mg/kg/injection, schedule: Q04DX002 (ip), vehicle: Klucel (hydroxypropylcellulose) (HPC)
[7] = dose: 50.0 mg/kg/injection, schedule: Q01DX001 (ip), vehicle: saline
[8] = dose: 100.0 mg/kg/injection, schedule: Q01DX001 (ip), vehicle: saline
[9] = dose: 200.0 mg/kg/injection, schedule: Q01DX001 (ip), vehicle: saline
[10] = dose: 400.0 mg/kg/injection, schedule: Q01DX001 (ip), vehicle: saline
[11] = dose: 100.0 mg/kg/injection, schedule: Q01DX009 (ip), vehicle: saline
[12] = dose: 200.0 mg/kg/injection, schedule: Q01DX009 (ip), vehicle: saline
[13] = dose: 100.0 mg/kg/injection, schedule: Q01DX009 (ip), vehicle: saline with Tween-80
[14] = dose: 100.0 mg/kg/injection, schedule: Q04DX003 (ip), vehicle: saline with Tween-80
[15] = dose: 200.0 mg/kg/injection, schedule: Q04DX003 (ip), vehicle: saline with Tween-80
[16] = dose: 400.0 mg/kg/injection, schedule: Q04DX003 (ip), vehicle: saline with Tween-80

Measured: T/C

O=C(Nc1cccc(S(=O)(=O)F)c1)/C(=C/c1ccc([N+](=O)[O-])cc1)c1ccccc1
inactive: dose: 100.0 mg/kg/injection, schedule: Q01DX001 (ip), vehicle: Klucel (hydroxypropylcellulose) (HPC) 89 % of control | dose: 200.0 mg/kg/injection, schedule: Q01DX001 (ip), vehicle: Klucel (hydroxypropylcellulose) (HPC) 99 % of control | dose: 400.0 mg/kg/injection, schedule: Q01DX001 (ip), vehicle: Klucel (hydroxypropylcellulose) (HPC) 99 % of control

CCO/C=C1\SC(=S)N(c2ccc(O)cc2)C1=O
inactive: dose: 12.5 mg/kg/injection, schedule: Q01DX009 (ip), vehicle: Klucel (hydroxypropylcellulose) (HPC) 103 % of control | dose: 25.0 mg/kg/injection, schedule: Q01DX009 (ip), vehicle: Klucel (hydroxypropylcellulose) (HPC) 101 % of control | dose: 50.0 mg/kg/injection, schedule: Q01DX009 (ip), vehicle: Klucel (hydroxypropylcellulose) (HPC) 105 % of control | [1] 103 % of control | dose: 100.0 mg/kg/injection, schedule: Q01DX009 (ip), vehicle: other 104 % of control | [2] 98 % of control | dose: 100.0 mg/kg/injection, schedule: Q04DX003 (ip), vehicle: saline sonified 96 % of control | dose: 200.0 mg/kg/injection, schedule: Q01DX009 (ip), vehicle: other 108 % of control | [3] 98 % of control | dose: 200.0 mg/kg/injection, schedule: Q04DX003 (ip), vehicle: saline sonified 97 % of control | dose: 400.0 mg/kg/injection, schedule: Q04DX003 (ip), vehicle: Klucel (hydroxypropylcellulose) (HPC) 89 % of control | dose: 400.0 mg/kg/injection, schedule: Q04DX003 (ip), vehicle: saline sonified 99 % of control

COc1ccc(C(=O)c2ccccc2)cc1
inactive: [4] 115 % of control | [5] 86 % of control | [6] 86 % of control

O=C1NC(C(=O)O)CC1O (configuration not stated)
inactive: [7] 100 % of control | [8] 95 % of control and 97 % of control | [9] 98 % of control and 88 % of control | [10] 97 % of control

CCOC(=O)C(CCc1ccccn1)C(C)=O (configuration not stated)
inactive: [11] 97 % of control | [12] 107 % of control | dose: 400.0 mg/kg/injection, schedule: Q01DX009 (ip), vehicle: saline 102 % of control

CC(C)NC(N)=O
inactive: dose: 87.5 mg/kg/injection, schedule: Q01DX009 (ip), vehicle: saline 101 % of control | dose: 175.0 mg/kg/injection, schedule: Q01DX009 (ip), vehicle: saline 101 % of control | dose: 350.0 mg/kg/injection, schedule: Q01DX009 (ip), vehicle: saline 101 % of control

O=C(O)C1CC1c1ccc(Br)cc1 (configuration not stated)
inactive: [4] 123 % of control | [5] 100 % of control

COc1cccc2c(=O)c(COC(C)=O)c(C)[nH]c12
inactive: dose: 12.5 mg/kg/injection, schedule: Q01DX009 (ip), vehicle: saline with Tween-80 100 % of control | dose: 25.0 mg/kg/injection, schedule: Q01DX009 (ip), vehicle: saline with Tween-80 100 % of control | dose: 50.0 mg/kg/injection, schedule: Q01DX009 (ip), vehicle: saline with Tween-80 98 % of control | [13] 106 % of control

Nc1ncnc2c1ncn2C1CCCCC1
inactive: dose: 17.5 mg/kg/injection, schedule: Q01DX Z (ip), vehicle: carboxymethylcellulose (CMC) 89 % of control | dose: 34.0 mg/kg/injection, schedule: Q01DX Z (ip), vehicle: carboxymethylcellulose (CMC) 98 % of control | dose: 34.0 mg/kg/injection, schedule: Q01DX Z (oral), vehicle: carboxymethylcellulose (CMC) 97 % of control | dose: 68.0 mg/kg/injection, schedule: Q01DX Z (ip), vehicle: carboxymethylcellulose (CMC) 102 % of control | dose: 68.0 mg/kg/injection, schedule: Q01DX Z (oral), vehicle: carboxymethylcellulose (CMC) 100 % of control | dose: 136.0 mg/kg/injection, schedule: Q01DX Z (oral), vehicle: carboxymethylcellulose (CMC) 102 % of control

Cc1ncc(O)c(CO)c1O
inactive: [7] 108 % of control | [8] 96 % of control | [9] 96 % of control | [10] 96 % of control

O=C(Nc1cccc(Cl)c1)NS(=O)(=O)c1ccccc1
inactive: [1] 97 % of control | dose: 200.0 mg/kg/injection, schedule: Q01DX009 (ip), vehicle: Klucel (hydroxypropylcellulose) (HPC) 105 % of control | dose: 400.0 mg/kg/injection, schedule: Q01DX009 (ip), vehicle: Klucel (hydroxypropylcellulose) (HPC) 106 % of control

CCCCNC(=S)N/N=C/c1ccccn1
inactive: [2] 90 % of control | [3] 97 % of control

CC(=O)Nc1ncn[nH]1
inactive: [7] 98 % of control | [8] 98 % of control | [9] 101 % of control | [10] 101 % of control

CCCCN(CCCC)CP(=O)(CN(CCCC)CCCC)CN(CCCC)CCCC
inactive: [14] 93 % of control | [15] 96 % of control | [16] 111 % of control

CC(Cl)C(=O)OC(C)(C)Cl (configuration not stated)
inactive: dose: 75.0 mg/kg/injection, schedule: Q01DX001 (ip), vehicle: carboxymethylcellulose (CMC) 104 % of control | dose: 150.0 mg/kg/injection, schedule: Q01DX001 (ip), vehicle: carboxymethylcellulose (CMC) 107 % of control

CC[N+]1(C)CC2C3CCC(C)(O3)C2C1 (configuration not stated)
inactive: dose: 44.0 mg/kg/injection, schedule: Q01DX Z (ip), vehicle: methylcellulose (MC) 104 % of control | dose: 66.0 mg/kg/injection, schedule: Q01DX Z (ip), vehicle: methylcellulose (MC) 98 % of control | dose: 100.0 mg/kg/injection, schedule: Q01DX Z (ip), vehicle: methylcellulose (MC) 104 % of control

C/C(=C\COc1ccccc1)CCC1OC1(C)C (configuration not stated)
inactive: dose: 100.0 mg/kg/injection, schedule: Q04DX002 (ip), vehicle: saline with Tween-80 100 % of control | dose: 200.0 mg/kg/injection, schedule: Q04DX002 (ip), vehicle: saline with Tween-80 93 % of control | dose: 400.0 mg/kg/injection, schedule: Q04DX002 (ip), vehicle: saline with Tween-80 104 % of control

Cc1ccc(NS(=O)(=O)c2ccccc2)nc1
inactive: [13] 96 % of control | [14] 99 % of control | dose: 200.0 mg/kg/injection, schedule: Q01DX009 (ip), vehicle: saline with Tween-80 98 % of control | [15] 93 % of control | dose: 400.0 mg/kg/injection, schedule: Q01DX009 (ip), vehicle: saline with Tween-80 98 % of control | [16] 96 % of control

COC(=O)CN1C(=O)c2ccccc2C1=O
inactive: dose: 100.0 mg/kg/injection, schedule: Q04DX003 (ip), vehicle: saline 95 % of control | dose: 200.0 mg/kg/injection, schedule: Q04DX003 (ip), vehicle: saline 101 % of control | dose: 400.0 mg/kg/injection, schedule: Q04DX003 (ip), vehicle: saline 98 % of control

C#CCOP(=O)(C#CC)OCC#C
inactive: dose: 25.0 mg/kg/injection, schedule: Q04DX003 (ip), vehicle: Klucel (hydroxypropylcellulose) (HPC) 93 % of control | dose: 50.0 mg/kg/injection, schedule: Q04DX003 (ip), vehicle: Klucel (hydroxypropylcellulose) (HPC) 97 % of control | [2] 98 % of control | [14] 95 % of control

Cc1ccc(S(=O)(=O)Cc2ccccc2)cc1
inactive: dose: 50.0 mg/kg/injection, schedule: Q01DX001 (ip), vehicle: carboxymethylcellulose (CMC) 103 % of control | dose: 50.0 mg/kg/injection, schedule: Q01DX009 (ip), vehicle: saline 103 % of control | dose: 100.0 mg/kg/injection, schedule: Q01DX001 (ip), vehicle: carboxymethylcellulose (CMC) 103 % of control | [11] 99 % of control | [4] 100 % of control | dose: 200.0 mg/kg/injection, schedule: Q01DX001 (ip), vehicle: carboxymethylcellulose (CMC) 103 % of control | [12] 94 % of control | [5] 106 % of control | dose: 400.0 mg/kg/injection, schedule: Q01DX001 (ip), vehicle: carboxymethylcellulose (CMC) 97 % of control | [6] 95 % of control
